Each block holds one compound with its values, some of them ahead of it. Activity calls are given as the source filed them.
Legend:
Cysteine protease ATG4B = target: T1, Cysteine protease ATG4B (Homo sapiens, UniProt Q9Y4P1); type: functional;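 note: Fluorescence-based dose-response confirmation assay measuring inhibition of ATG4B activity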
T1 sequence (Q9Y4P1 whole entry): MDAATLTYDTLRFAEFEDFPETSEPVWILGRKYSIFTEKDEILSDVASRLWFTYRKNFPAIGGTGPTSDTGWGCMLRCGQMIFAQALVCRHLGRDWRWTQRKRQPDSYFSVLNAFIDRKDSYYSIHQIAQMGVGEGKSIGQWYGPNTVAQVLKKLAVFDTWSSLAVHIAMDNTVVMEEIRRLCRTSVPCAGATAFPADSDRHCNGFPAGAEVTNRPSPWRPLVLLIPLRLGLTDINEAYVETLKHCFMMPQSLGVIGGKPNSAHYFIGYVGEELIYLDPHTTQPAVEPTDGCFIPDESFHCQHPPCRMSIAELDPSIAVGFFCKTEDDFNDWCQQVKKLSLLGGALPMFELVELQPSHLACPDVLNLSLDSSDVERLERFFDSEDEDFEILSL

Phospholipase A2 = Phospholipase A2 (Homo sapiens, UniProt P04054); type: functional;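 note: confirmatory dose-response counterscreen on phospholipase A2, testing hits that came from an ultra-high-throughput screen for ATG4B inhibitors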
Phospholipase A2, sequence (P04054 whole entry, the tested form may be a part): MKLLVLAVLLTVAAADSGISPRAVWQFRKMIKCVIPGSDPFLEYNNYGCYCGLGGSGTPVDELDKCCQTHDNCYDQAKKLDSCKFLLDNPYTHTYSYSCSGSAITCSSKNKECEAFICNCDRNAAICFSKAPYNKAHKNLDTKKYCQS

[1] = target: T2, Oxysterols receptor LXR-beta (Homo sapiens, UniProt P55055); type: functional, cell-based;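 note: Cell-based luminescence dose-response assay of agonist activity at LXR, run as a confirmatory counterscreen to a daf-12 agonist screen; HEK293 cells with Gal4-LXR fusion and GAL4-driven luciferase reporter; agonist potency from rising luciferase signal of a Gal4-LXR reporter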
T2 sequence (P55055 whole entry): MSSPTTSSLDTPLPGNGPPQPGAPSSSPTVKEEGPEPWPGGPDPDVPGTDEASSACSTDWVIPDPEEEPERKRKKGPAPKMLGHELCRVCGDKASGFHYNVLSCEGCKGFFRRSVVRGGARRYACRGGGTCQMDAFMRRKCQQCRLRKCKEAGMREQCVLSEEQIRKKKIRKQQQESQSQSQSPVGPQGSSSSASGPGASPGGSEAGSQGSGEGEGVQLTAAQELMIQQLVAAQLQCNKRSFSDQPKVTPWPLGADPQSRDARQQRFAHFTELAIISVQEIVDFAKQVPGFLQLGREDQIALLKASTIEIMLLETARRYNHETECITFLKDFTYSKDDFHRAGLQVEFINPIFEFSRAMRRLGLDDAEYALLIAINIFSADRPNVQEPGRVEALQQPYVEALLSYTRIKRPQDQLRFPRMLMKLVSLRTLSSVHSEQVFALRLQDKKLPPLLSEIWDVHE

[2] = target: Beta-2 adrenergic receptor (Homo sapiens, UniProt P07550); experiment: beta2AR agonists driving receptor internalization, dose response, cell-based, FAP fluorogen, flow cytometry, cherry pick 1 (AID 588763); type: functional
Beta-2 adrenergic receptor, sequence (P07550 whole entry): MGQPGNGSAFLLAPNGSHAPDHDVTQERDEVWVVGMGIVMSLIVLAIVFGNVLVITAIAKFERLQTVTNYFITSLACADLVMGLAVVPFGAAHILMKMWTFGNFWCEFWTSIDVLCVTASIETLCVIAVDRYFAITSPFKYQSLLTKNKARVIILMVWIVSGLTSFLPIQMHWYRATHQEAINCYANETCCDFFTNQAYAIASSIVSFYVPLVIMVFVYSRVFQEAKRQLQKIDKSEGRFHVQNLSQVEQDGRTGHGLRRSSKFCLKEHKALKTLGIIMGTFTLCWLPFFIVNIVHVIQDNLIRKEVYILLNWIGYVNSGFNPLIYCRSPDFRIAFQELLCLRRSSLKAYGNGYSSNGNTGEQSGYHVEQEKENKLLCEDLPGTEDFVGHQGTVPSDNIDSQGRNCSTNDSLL

Hexokinase HKDC1 = target: T3, Hexokinase HKDC1 (Homo sapiens, UniProt Q2TB90); experiment: HKDC1 hexokinase inhibitors, SAR follow-up, biochemical, set 2 (AID 588355); type: functional
T3 sequence (Q2TB90 whole entry): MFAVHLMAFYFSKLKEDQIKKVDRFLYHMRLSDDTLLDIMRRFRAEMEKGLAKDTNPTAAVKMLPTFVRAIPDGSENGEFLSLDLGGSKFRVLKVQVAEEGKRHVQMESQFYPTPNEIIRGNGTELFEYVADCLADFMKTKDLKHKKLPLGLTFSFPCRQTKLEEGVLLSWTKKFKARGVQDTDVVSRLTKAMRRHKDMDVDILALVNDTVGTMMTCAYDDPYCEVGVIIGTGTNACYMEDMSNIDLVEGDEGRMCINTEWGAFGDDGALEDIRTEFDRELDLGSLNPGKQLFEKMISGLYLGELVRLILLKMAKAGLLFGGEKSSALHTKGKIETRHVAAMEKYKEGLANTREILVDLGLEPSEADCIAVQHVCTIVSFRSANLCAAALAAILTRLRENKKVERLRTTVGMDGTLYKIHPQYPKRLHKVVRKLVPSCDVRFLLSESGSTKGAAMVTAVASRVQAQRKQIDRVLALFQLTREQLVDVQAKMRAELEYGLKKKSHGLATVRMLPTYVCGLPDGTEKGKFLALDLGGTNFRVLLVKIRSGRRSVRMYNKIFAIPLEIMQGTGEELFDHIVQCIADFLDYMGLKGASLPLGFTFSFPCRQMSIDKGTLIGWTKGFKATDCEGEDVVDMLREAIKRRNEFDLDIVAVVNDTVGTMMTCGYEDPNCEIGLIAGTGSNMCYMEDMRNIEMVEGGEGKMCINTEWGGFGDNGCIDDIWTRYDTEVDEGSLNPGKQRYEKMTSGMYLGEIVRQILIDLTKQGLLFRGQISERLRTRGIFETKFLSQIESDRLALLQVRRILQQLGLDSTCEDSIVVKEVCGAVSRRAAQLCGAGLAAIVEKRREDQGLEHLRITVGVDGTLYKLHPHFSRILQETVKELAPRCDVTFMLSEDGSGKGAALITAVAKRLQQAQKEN

Hexokinase-1 = target: T4, Hexokinase-1 (Homo sapiens, UniProt P19367); experiment: HK1 enzyme inhibition by HKDC1 hits, SAR follow-up, selectivity assay for HKDC1 inhibitor project, biochemical, set 2, resazurin fluorescence coupled readout (AID 588356); type: functional
T4 sequence (P19367 whole entry): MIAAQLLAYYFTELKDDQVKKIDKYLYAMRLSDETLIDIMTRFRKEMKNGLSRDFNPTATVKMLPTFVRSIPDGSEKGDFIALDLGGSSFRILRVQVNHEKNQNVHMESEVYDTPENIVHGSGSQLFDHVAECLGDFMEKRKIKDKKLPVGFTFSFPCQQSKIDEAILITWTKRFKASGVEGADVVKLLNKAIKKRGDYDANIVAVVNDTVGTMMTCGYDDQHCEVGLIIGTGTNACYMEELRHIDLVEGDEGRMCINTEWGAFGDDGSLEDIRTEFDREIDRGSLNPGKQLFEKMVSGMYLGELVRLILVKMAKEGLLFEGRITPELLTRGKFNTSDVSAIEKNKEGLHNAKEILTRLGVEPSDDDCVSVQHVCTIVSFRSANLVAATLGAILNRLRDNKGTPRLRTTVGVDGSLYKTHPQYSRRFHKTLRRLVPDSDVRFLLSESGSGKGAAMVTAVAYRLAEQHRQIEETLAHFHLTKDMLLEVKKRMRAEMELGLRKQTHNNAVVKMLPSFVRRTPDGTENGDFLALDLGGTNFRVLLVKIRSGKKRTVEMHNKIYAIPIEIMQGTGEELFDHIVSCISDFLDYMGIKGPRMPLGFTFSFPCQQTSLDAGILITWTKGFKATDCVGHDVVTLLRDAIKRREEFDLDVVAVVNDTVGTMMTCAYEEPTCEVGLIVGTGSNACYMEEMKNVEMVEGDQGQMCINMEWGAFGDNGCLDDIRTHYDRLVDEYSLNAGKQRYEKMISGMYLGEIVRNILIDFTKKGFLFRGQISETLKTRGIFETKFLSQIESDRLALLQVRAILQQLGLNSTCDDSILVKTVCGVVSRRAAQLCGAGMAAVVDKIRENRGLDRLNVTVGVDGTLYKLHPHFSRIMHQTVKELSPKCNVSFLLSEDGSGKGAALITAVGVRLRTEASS

[3] = target: Dual specificity tyrosine-phosphorylation-regulated kinase 1A (Rattus norvegicus, UniProt Q63470); type: biochemical, Homo sapiens
[4] = target: T5, Nuclear receptor subfamily 0 group B member 1 (Homo sapiens, UniProt P51843); experiment: Luminescence-based cell-based high throughput dose response assay for inhibitors of the orphan nuclear receptor subfamily 0, group B, member 1 (DAX1; NR0B1). [Related pubchem assays (depositor defined):AID504766, AID504790]; type: functional
T5 sequence (P51843 whole entry): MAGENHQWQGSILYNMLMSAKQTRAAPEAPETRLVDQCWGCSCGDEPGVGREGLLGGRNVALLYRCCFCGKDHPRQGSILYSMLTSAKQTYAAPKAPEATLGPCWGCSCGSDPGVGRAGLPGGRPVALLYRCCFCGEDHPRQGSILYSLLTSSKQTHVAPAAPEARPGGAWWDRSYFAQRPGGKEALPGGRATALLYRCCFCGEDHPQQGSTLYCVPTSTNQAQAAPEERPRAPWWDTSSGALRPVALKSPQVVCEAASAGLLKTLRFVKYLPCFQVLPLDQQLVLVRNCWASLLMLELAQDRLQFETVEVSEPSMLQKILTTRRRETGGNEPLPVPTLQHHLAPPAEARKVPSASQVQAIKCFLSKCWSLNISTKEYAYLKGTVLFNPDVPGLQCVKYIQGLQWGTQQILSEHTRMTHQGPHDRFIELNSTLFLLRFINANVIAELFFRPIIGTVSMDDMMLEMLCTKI

HEK293 = experiment: cells; type: functional, cell-based; conditions: Homo sapiens

IC50 (Hexokinase HKDC1): > 80 µM (inactive)
IC50 (Hexokinase-1): > 80 µM (inactive)
Compound: Cc1ccccc1N1C(=O)c2ccccc2C1Nc1ccc(F)cc1 (configuration not stated)

IC50 (Hexokinase HKDC1): > 80 µM (inactive)
IC50 (Hexokinase-1): > 80 µM (inactive)
Compound: O=c1c2cc(F)ccc2nc(/C=C/c2cccnc2)n1Cc1ccccc1

AC50 [3]: 2.77 µM (active)
Compound: COc1ccc(O)c(-c2cc(-c3ccccc3Cl)n[nH]2)c1

More lines, now with the values behind:

Compound: Cc1c(Cl)c([N+](=O)[O-])nn1Cc1ccc(C(=O)Nc2ccc(Cl)cn2)o1
IC50 (Cysteine protease ATG4B): 22.5 µM (inactive)
IC50 (Phospholipase A2): 11.1 µM (active)

Compound: Cn1c(=N)n(CC(=O)c2ccc(Br)cc2)c2ccccc21
EC50 (cells): > 67.5 µM (inactive)
EC50 [1]: > 67.5 µM (inactive)
EC50 [2]: 15.6 µM (inactive)

Compound: O=c1cc(-c2ccccc2)oc2ccc(O)cc12 [6-HYDROXYFLAVONE]
IC50 [4]: > 67.6 µM (inactive)
IC50 (HEK293): > 67.6 µM (inactive)

From ChEMBL document CHEMBL1201862, “PubChem BioAssay data set” (2004)
